Results: patent EP4722207A1, “OXOISOINDOLINYL-SUBSTITUTED TETRAHYDROPYRIMIDINEDIONE DERIVATIVE AND USE THEREOF” (Gluetacs Therapeutics (Shanghai) Co., Ltd., priority 2023, dated 2024)

What was measured:
Format in all cases: cell-based
Conditions in all cases: compounds at 50 nM and 500 nM, 24 hours
IKZF1 = target: T1, IKZF1 (Homo sapiens, UniProt Q13422+Q96SW2); assay: Western-blot assay, substrate protein degradation in hPBMCs: IKZF1
T1 construct: effects of the compounds of the present disclosure on the expression of target proteins in cells; endogenous in cells; host or cells: human PBMCs (hPBMCs)

WEE1 = target: T2, WEE1 (Homo sapiens, UniProt P30291+Q96SW2); assay: Western-blot assay, substrate protein degradation in hPBMCs: WEE1
T2 construct: effects of the compounds of the present disclosure on the expression of target proteins in cells; endogenous in cells; host or cells: human PBMCs (hPBMCs)

IKZF2 = target: T3, IKZF2 (Homo sapiens, UniProt Q96SW2+Q9UKS7); assay: Western-blot assay, substrate protein degradation in hPBMCs: IKZF2
T3 construct: effects of the compounds of the present disclosure on the expression of target proteins in cells; endogenous in cells; host or cells: human PBMCs (hPBMCs)

IKZF3 = target: T4, IKZF3 (Homo sapiens, UniProt Q96SW2+Q9UKT9); assay: Western-blot assay, substrate protein degradation in hPBMCs: IKZF3
T4 construct: effects of the compounds of the present disclosure on the expression of target proteins in cells; endogenous in cells; host or cells: human PBMCs (hPBMCs)

CK1α = target: T5, CK1α (Homo sapiens, UniProt P48729+Q96SW2); assay: Western-blot assay, substrate protein degradation in hPBMCs: CK1α
T5 construct: effects of the compounds of the present disclosure on the expression of target proteins in cells; endogenous in cells; host or cells: human PBMCs (hPBMCs)

GSPT1 = target: T6, GSPT1 (Homo sapiens, UniProt P15170+Q96SW2); assay: Western-blot assay, substrate protein degradation in hPBMCs: GSPT1
T6 construct: effects of the compounds of the present disclosure on the expression of target proteins in cells; endogenous in cells; host or cells: human PBMCs (hPBMCs)
T6 sequence (P15170 whole entry): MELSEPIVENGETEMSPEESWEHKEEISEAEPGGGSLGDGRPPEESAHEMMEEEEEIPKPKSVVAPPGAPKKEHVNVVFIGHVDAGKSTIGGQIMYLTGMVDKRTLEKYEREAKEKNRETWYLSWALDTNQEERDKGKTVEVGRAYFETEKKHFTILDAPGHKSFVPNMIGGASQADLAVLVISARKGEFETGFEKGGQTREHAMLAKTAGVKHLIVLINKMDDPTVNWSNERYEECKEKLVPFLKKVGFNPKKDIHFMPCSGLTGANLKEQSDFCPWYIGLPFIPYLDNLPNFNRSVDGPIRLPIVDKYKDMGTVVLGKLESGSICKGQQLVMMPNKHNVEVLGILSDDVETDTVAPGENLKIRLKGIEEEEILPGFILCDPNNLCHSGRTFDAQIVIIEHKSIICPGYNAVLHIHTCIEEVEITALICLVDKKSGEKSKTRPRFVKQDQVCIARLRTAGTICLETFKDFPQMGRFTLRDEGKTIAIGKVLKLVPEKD
T6 sequence (Q96SW2 whole entry): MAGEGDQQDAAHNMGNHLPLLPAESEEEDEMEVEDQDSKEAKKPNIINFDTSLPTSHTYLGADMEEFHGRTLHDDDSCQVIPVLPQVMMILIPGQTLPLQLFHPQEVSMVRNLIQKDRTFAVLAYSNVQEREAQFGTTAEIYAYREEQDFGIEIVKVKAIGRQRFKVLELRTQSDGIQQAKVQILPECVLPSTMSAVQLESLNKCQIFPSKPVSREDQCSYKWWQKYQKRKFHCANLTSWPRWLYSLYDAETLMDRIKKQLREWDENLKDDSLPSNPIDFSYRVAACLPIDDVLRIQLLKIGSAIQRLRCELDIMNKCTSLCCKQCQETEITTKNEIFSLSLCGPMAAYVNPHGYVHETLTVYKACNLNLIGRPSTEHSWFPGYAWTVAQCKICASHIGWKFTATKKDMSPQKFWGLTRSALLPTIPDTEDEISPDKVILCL
T6 sequence (Q16531 whole entry partner): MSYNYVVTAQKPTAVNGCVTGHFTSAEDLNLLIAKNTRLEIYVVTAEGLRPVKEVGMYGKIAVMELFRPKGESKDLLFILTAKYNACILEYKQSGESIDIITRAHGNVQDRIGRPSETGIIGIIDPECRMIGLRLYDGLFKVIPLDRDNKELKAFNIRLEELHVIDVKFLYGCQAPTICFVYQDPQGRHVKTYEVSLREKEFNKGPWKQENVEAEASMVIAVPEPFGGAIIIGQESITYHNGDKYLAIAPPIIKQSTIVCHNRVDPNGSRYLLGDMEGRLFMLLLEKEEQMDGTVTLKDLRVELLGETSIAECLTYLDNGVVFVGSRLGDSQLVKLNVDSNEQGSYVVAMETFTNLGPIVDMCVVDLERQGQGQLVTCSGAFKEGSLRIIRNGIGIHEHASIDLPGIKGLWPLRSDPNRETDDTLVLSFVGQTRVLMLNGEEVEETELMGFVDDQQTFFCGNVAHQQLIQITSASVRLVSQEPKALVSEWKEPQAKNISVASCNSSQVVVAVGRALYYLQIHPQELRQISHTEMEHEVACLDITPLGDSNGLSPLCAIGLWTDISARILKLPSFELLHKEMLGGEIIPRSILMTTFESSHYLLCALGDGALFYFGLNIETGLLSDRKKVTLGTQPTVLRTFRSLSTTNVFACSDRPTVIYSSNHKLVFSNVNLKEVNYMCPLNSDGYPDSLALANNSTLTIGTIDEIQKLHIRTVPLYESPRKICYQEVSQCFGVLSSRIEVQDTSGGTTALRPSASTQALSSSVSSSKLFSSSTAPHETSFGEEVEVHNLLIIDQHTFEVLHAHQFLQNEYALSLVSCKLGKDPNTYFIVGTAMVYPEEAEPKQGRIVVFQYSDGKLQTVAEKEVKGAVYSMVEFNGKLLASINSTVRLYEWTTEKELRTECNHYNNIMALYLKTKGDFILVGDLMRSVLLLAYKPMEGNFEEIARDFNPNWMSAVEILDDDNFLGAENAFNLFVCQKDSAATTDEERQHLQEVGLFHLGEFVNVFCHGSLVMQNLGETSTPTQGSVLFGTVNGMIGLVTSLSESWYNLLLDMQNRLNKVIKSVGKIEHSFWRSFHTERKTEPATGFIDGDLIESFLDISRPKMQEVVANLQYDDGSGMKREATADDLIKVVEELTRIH

T3 sequence (Q9UKS7 whole entry): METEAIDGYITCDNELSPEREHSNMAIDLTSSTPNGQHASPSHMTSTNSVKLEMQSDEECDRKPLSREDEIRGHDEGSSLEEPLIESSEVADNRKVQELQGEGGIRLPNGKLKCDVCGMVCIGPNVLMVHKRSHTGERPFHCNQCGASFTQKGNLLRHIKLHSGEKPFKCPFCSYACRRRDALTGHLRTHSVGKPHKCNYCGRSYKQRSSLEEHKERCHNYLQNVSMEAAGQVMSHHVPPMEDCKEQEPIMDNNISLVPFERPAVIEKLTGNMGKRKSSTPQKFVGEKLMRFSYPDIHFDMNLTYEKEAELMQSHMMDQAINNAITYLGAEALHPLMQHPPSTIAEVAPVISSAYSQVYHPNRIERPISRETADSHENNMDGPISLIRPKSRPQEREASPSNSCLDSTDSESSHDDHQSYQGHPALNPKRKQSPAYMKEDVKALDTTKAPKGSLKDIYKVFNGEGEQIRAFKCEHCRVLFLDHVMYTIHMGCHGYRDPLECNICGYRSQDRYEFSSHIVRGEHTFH
T3 sequence (Q96SW2 whole entry): as the sequence (Q96SW2 whole entry) above
T3 sequence (Q16531 whole entry partner): as the sequence (Q16531 whole entry partner) above
T5 sequence (P48729 whole entry): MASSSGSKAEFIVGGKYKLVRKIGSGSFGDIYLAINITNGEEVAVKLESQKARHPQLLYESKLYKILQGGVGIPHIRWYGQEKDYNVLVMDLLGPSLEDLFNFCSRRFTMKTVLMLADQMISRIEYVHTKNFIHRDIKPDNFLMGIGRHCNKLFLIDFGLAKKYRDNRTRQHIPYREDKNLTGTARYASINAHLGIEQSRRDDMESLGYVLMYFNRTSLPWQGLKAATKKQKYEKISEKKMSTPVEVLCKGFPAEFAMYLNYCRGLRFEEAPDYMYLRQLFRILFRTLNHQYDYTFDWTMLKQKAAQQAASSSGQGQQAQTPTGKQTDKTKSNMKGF
T5 sequence (Q96SW2 whole entry): as the sequence (Q96SW2 whole entry) above
T5 sequence (Q16531 whole entry partner): as the sequence (Q16531 whole entry partner) above
T4 sequence (Q9UKT9 whole entry): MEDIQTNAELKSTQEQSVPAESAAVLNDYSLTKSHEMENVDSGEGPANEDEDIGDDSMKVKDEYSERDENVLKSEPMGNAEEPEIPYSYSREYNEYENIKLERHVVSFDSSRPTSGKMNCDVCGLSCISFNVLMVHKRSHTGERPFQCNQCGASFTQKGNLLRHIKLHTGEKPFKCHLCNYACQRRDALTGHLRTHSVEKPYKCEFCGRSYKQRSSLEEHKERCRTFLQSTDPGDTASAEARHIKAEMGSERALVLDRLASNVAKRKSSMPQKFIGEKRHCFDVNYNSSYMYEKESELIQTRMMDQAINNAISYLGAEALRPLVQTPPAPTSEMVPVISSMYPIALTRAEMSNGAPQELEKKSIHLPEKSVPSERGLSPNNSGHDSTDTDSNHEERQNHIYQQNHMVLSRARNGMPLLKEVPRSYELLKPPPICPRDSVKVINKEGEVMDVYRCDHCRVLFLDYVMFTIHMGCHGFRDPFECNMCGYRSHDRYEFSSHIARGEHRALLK
T4 sequence (Q96SW2 whole entry): as the sequence (Q96SW2 whole entry) above
T4 sequence (Q16531 whole entry partner): as the sequence (Q16531 whole entry partner) above
T2 sequence (P30291 whole entry): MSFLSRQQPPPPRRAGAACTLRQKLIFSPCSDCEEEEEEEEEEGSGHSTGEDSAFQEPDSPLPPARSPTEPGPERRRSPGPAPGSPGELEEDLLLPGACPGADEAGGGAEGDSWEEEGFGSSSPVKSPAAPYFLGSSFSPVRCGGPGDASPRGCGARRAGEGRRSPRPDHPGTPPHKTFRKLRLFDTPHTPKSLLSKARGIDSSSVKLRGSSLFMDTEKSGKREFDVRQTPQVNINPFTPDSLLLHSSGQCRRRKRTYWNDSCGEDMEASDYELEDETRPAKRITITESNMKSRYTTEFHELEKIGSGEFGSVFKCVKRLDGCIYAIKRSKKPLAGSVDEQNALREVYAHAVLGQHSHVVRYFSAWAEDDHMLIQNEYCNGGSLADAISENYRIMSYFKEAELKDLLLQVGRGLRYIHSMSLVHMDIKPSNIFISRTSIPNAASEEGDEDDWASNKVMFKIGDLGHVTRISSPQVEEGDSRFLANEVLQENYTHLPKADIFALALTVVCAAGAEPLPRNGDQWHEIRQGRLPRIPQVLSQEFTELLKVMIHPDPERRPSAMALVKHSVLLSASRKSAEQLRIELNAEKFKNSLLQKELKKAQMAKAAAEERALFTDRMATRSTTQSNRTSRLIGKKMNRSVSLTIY
T2 sequence (Q96SW2 whole entry): as the sequence (Q96SW2 whole entry) above
T2 sequence (Q16531 whole entry partner): as the sequence (Q16531 whole entry partner) above

SMILES: O=C1CCN(N2C(=O)c3ccc(CN4CCN(c5ncnc(Cl)c5Cl)CC4)cc3C2=O)C(=O)N1 [GT-07034, 5-((4-(5,6-dichloropyrimidin-4-yl)piperazin-1-yl)methyl)-2-(2,4-dioxotetrahydropyrimidin-1(2H)-yl)isoindoline-1,3-dione]
- IKZF1 substrate protein remaining % (IKZF1): A ("A" is defined as 0% ≤ substrate protein remaining % ≤ 80%)
- WEE1 substrate protein remaining % (WEE1): A ("A" is defined as 0% ≤ substrate protein remaining % ≤ 80%)
- IKZF2 substrate protein remaining % (IKZF2): A ("A" is defined as 0% ≤ substrate protein remaining % ≤ 80%)
- IKZF3 substrate protein remaining % (IKZF3): A ("A" is defined as 0% ≤ substrate protein remaining % ≤ 80%)
- CK1α substrate protein remaining % (CK1α): A ("A" is defined as 0% ≤ substrate protein remaining % ≤ 80%)
- GSPT1 substrate protein remaining % (GSPT1): A ("A" is defined as 0% ≤ substrate protein remaining % ≤ 80%)

SMILES: O=C1CCN(N2C(=O)c3ccc(CN4CCN(c5cnnc(Cl)c5Cl)CC4)cc3C2=O)C(=O)N1 [GT-07035, 5-((4-(5,6-dichloropyridazin-4-yl)piperazin-1-yl)methyl)-2-(2,4-dioxotetrahydropyrimidin-1(2H)-yl)isoindoline-1,3-dione]
- IKZF1 substrate protein remaining % (IKZF1): B ("B" is defined as 80%< substrate protein remaining %≤ 100%)
- WEE1 substrate protein remaining % (WEE1): B ("B" is defined as 80%< substrate protein remaining %≤ 100%)
- IKZF2 substrate protein remaining % (IKZF2): B ("B" is defined as 80%< substrate protein remaining %≤ 100%)
- IKZF3 substrate protein remaining % (IKZF3): A ("A" is defined as 0% ≤ substrate protein remaining % ≤ 80%)
- CK1α substrate protein remaining % (CK1α): A ("A" is defined as 0% ≤ substrate protein remaining % ≤ 80%)
- GSPT1 substrate protein remaining % (GSPT1): A ("A" is defined as 0% ≤ substrate protein remaining % ≤ 80%)

SMILES: O=C1CCN(N2C(=O)c3ccc(CN4CCN(c5cc(Cl)nnc5Cl)CC4)cc3C2=O)C(=O)N1 [GT-07036, 5-((4-(3,6-dichloropyridazin-4-yl)piperazin-1-yl)methyl)-2-(2,4-dioxotetrahydropyrimidin-1(2H)-yl)isoindoline-1,3-dione]
- IKZF1 substrate protein remaining % (IKZF1): B ("B" is defined as 80%< substrate protein remaining %≤ 100%)
- WEE1 substrate protein remaining % (WEE1): B ("B" is defined as 80%< substrate protein remaining %≤ 100%)
- IKZF2 substrate protein remaining % (IKZF2): B ("B" is defined as 80%< substrate protein remaining %≤ 100%)
- IKZF3 substrate protein remaining % (IKZF3): B ("B" is defined as 80%< substrate protein remaining %≤ 100%)
- CK1α substrate protein remaining % (CK1α): B ("B" is defined as 80%< substrate protein remaining %≤ 100%)
- GSPT1 substrate protein remaining % (GSPT1): A ("A" is defined as 0% ≤ substrate protein remaining % ≤ 80%)

SMILES: O=C1CCN(N2C(=O)c3ccc(CN4CCN(c5ncncn5)CC4)cc3C2=O)C(=O)N1 [GT-07037, 5-((4-(1,3,5-triazin-2-yl)piperazin-1-yl)methyl)-2-(2,4-dioxotetrahydropyrimidin-1(2H)-yl)isoindoline-1,3-dione]
- IKZF1 substrate protein remaining % (IKZF1): B ("B" is defined as 80%< substrate protein remaining %≤ 100%)
- WEE1 substrate protein remaining % (WEE1): B ("B" is defined as 80%< substrate protein remaining %≤ 100%)
- IKZF2 substrate protein remaining % (IKZF2): B ("B" is defined as 80%< substrate protein remaining %≤ 100%)
- IKZF3 substrate protein remaining % (IKZF3): B ("B" is defined as 80%< substrate protein remaining %≤ 100%)
- CK1α substrate protein remaining % (CK1α): B ("B" is defined as 80%< substrate protein remaining %≤ 100%)
- GSPT1 substrate protein remaining % (GSPT1): A ("A" is defined as 0% ≤ substrate protein remaining % ≤ 80%)

SMILES: O=C1CCN(N2C(=O)c3ccc(CN4CCN(c5c(Cl)cncc5Cl)CC4)cc3C2=O)C(=O)N1 [GT-07038, 5-((4-(3,5-dichloropyridin-4-yl)piperazin-1-yl)methyl)-2-(2,4-dioxotetrahydropyrimidin-1(2H)-yl)isoindoline-1,3-dione]
- IKZF1 substrate protein remaining % (IKZF1): A ("A" is defined as 0% ≤ substrate protein remaining % ≤ 80%)
- WEE1 substrate protein remaining % (WEE1): A ("A" is defined as 0% ≤ substrate protein remaining % ≤ 80%)
- IKZF2 substrate protein remaining % (IKZF2): A ("A" is defined as 0% ≤ substrate protein remaining % ≤ 80%)
- IKZF3 substrate protein remaining % (IKZF3): A ("A" is defined as 0% ≤ substrate protein remaining % ≤ 80%)
- CK1α substrate protein remaining % (CK1α): A ("A" is defined as 0% ≤ substrate protein remaining % ≤ 80%)
- GSPT1 substrate protein remaining % (GSPT1): A ("A" is defined as 0% ≤ substrate protein remaining % ≤ 80%)

SMILES: O=C1CCN(N2Cc3cc(CN4CCN(c5ccnc(Cl)c5F)CC4)ccc3C2=O)C(=O)N1 [GT-07069, 1-(5-((4-(2-chloro-3-fluoropyridin-4-yl)piperazin-1-yl)methyl)-1-oxoisoindolin-2-yl)dihydropyrimidine-2,4(1H,3H)-dione]
- IKZF1 substrate protein remaining % (IKZF1): B ("B" is defined as 80%< substrate protein remaining %≤ 100%)
- WEE1 substrate protein remaining % (WEE1): A ("A" is defined as 0% ≤ substrate protein remaining % ≤ 80%)
- IKZF2 substrate protein remaining % (IKZF2): B ("B" is defined as 80%< substrate protein remaining %≤ 100%)
- IKZF3 substrate protein remaining % (IKZF3): B ("B" is defined as 80%< substrate protein remaining %≤ 100%)
- CK1α substrate protein remaining % (CK1α): B ("B" is defined as 80%< substrate protein remaining %≤ 100%)
- GSPT1 substrate protein remaining % (GSPT1): B ("B" is defined as 80%< substrate protein remaining %≤ 100%)

SMILES: O=C1CCN(N2C(=O)c3ccc(CN4CCN(c5ccncc5)CC4)cc3C2=O)C(=O)N1 [GT-07073, 2-(2,4-dioxotetrahydropyrimidin-1(2H)-yl)-5-((4-(pyridin-4-yl)piperazin-1-yl)methyl)isoindoline-1,3-dione]
- IKZF1 substrate protein remaining % (IKZF1): B ("B" is defined as 80%< substrate protein remaining %≤ 100%)
- WEE1 substrate protein remaining % (WEE1): A ("A" is defined as 0% ≤ substrate protein remaining % ≤ 80%)
- IKZF2 substrate protein remaining % (IKZF2): B ("B" is defined as 80%< substrate protein remaining %≤ 100%)
- IKZF3 substrate protein remaining % (IKZF3): B ("B" is defined as 80%< substrate protein remaining %≤ 100%)
- CK1α substrate protein remaining % (CK1α): B ("B" is defined as 80%< substrate protein remaining %≤ 100%)
- GSPT1 substrate protein remaining % (GSPT1): B ("B" is defined as 80%< substrate protein remaining %≤ 100%)

SMILES: O=C1CCN(N2Cc3cc(CN4CCN(c5cnccn5)CC4)ccc3C2=O)C(=O)N1 [GT-07160, 1-(1-oxo-5-((4-(pyrazin-2-yl)piperazin-1-yl)methyl)isoindolin-2-yl)dihydropyrimidine-2,4(1H,3H)-dione]
- IKZF1 substrate protein remaining % (IKZF1): B ("B" is defined as 80%< substrate protein remaining %≤ 100%)
- WEE1 substrate protein remaining % (WEE1): B ("B" is defined as 80%< substrate protein remaining %≤ 100%)
- IKZF2 substrate protein remaining % (IKZF2): A ("A" is defined as 0% ≤ substrate protein remaining % ≤ 80%)
- IKZF3 substrate protein remaining % (IKZF3): B ("B" is defined as 80%< substrate protein remaining %≤ 100%)
- CK1α substrate protein remaining % (CK1α): A ("A" is defined as 0% ≤ substrate protein remaining % ≤ 80%)
- GSPT1 substrate protein remaining % (GSPT1): A ("A" is defined as 0% ≤ substrate protein remaining % ≤ 80%)

SMILES: Cc1cc(N2CCN(Cc3ccc4c(c3)C(=O)N(N3CCC(=O)NC3=O)C4=O)CC2)ccn1 [GT-07161, 2-(2,4-dioxotetrahydropyrimidin-1(2H)-yl)-5-((4-(2-methylpyridin-4-yl)piperazin-1-yl)methyl)isoindoline-1,3-dione]
- IKZF1 substrate protein remaining % (IKZF1): B ("B" is defined as 80%< substrate protein remaining %≤ 100%)
- WEE1 substrate protein remaining % (WEE1): B ("B" is defined as 80%< substrate protein remaining %≤ 100%)
- IKZF2 substrate protein remaining % (IKZF2): A ("A" is defined as 0% ≤ substrate protein remaining % ≤ 80%)
- IKZF3 substrate protein remaining % (IKZF3): B ("B" is defined as 80%< substrate protein remaining %≤ 100%)
- CK1α substrate protein remaining % (CK1α): B ("B" is defined as 80%< substrate protein remaining %≤ 100%)
- GSPT1 substrate protein remaining % (GSPT1): A ("A" is defined as 0% ≤ substrate protein remaining % ≤ 80%)

SMILES: O=C1CCN(N2C(=O)c3ccc(CN4CCN(c5nccc(F)c5F)CC4)cc3C2=O)C(=O)N1 [GT-07162, 5-((4-(3,4-difluoropyridin-2-yl)piperazin-1-yl)methyl)-2-(2,4-dioxotetrahydropyrimidin-1(2H)-yl)isoindoline-1,3-dione]
- IKZF1 substrate protein remaining % (IKZF1): B ("B" is defined as 80%< substrate protein remaining %≤ 100%)
- WEE1 substrate protein remaining % (WEE1): B ("B" is defined as 80%< substrate protein remaining %≤ 100%)
- IKZF2 substrate protein remaining % (IKZF2): A ("A" is defined as 0% ≤ substrate protein remaining % ≤ 80%)
- IKZF3 substrate protein remaining % (IKZF3): B ("B" is defined as 80%< substrate protein remaining %≤ 100%)
- CK1α substrate protein remaining % (CK1α): A ("A" is defined as 0% ≤ substrate protein remaining % ≤ 80%)
- GSPT1 substrate protein remaining % (GSPT1): A ("A" is defined as 0% ≤ substrate protein remaining % ≤ 80%)

SMILES: O=C1CCN(N2C(=O)c3ccc(CN4CCN(c5ccncc5Br)CC4)cc3C2=O)C(=O)N1 [GT-07163, 5-((4-(3-bromopyridin-4-yl)piperazin-1-yl)methyl)-2-(2,4-dioxotetrahydropyrimidin-1(2H)-yl)isoindoline-1,3-dione]
- IKZF1 substrate protein remaining % (IKZF1): B ("B" is defined as 80%< substrate protein remaining %≤ 100%)
- WEE1 substrate protein remaining % (WEE1): B ("B" is defined as 80%< substrate protein remaining %≤ 100%)
- IKZF2 substrate protein remaining % (IKZF2): A ("A" is defined as 0% ≤ substrate protein remaining % ≤ 80%)
- IKZF3 substrate protein remaining % (IKZF3): B ("B" is defined as 80%< substrate protein remaining %≤ 100%)
- CK1α substrate protein remaining % (CK1α): B ("B" is defined as 80%< substrate protein remaining %≤ 100%)
- GSPT1 substrate protein remaining % (GSPT1): A ("A" is defined as 0% ≤ substrate protein remaining % ≤ 80%)
